We go through 1 molecule from publication PMC3983352 (Journal of Medicinal Chemistry, 2014).

For one experiment, the system named is HDAC8 R37A. Conditions: HDAC8 R37A vs HDAC8 wild type; cited from earlier work.
Another experiment has as its target HDAC1 R34A (Homo sapiens, UniProt Q13547, R34A). The experiment in a line: Acetate inhibition assay. In kind it is biochemical.
For experiment [1], the system named is recombinant HDAC8 wild type. The settings on record: acetate inhibition; cited from earlier work.
For a further experiment, the target named is HDAC1 Y24A (Homo sapiens, UniProt Q13547, Y24A). Briefly: Acetate inhibition assay. Format: biochemical.
Another experiment deals with HDAC1 C151A (Homo sapiens, UniProt Q13547, C151A). The experiment in a line: Acetate inhibition assay. Format: biochemical.
In another experiment the target is HDAC1 R36A (Homo sapiens, UniProt Q13547, R36A). Briefly: Acetate inhibition assay. In kind it is biochemical.
For a further experiment, the target named is wild-type HDAC1 (Homo sapiens, UniProt Q13547). Briefly: Acetate inhibition assay. Format: biochemical. Conditions: at least three independent trials, standard error.
In a further experiment the target is HDAC1 F205Y (Homo sapiens, UniProt Q13547, F205Y). Briefly: Acetate inhibition assay. In kind it is biochemical.
The next experiment addresses HDAC1 Y23A (Homo sapiens, UniProt Q13547, Y23A). The experiment in a line: Acetate inhibition assay. Format: biochemical.

The structures appear in SMILES notation.

HDAC1 R34A, sequence (Q13547 whole entry R34A): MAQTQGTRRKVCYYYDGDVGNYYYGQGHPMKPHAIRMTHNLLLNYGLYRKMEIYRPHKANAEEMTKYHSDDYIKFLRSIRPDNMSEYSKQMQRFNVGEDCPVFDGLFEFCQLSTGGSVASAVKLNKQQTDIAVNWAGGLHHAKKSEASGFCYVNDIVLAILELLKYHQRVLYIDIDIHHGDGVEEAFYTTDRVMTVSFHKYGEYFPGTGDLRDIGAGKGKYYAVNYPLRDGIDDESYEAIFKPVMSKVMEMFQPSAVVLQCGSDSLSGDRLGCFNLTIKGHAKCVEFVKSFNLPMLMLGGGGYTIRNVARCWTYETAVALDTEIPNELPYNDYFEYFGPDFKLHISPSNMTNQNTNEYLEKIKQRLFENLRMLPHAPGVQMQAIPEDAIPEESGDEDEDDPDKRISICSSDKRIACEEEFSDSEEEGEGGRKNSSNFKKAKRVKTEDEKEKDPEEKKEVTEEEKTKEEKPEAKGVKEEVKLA
HDAC1 C151A, sequence (Q13547 whole entry C151A): as the sequence (Q13547 whole entry R34A) above, with A34R, C151A counted along it
HDAC1 R36A, sequence (Q13547 whole entry R36A): as the sequence (Q13547 whole entry R34A) above, with A34R, R36A counted along it
HDAC1 Y23A, sequence (Q13547 whole entry Y23A): as the sequence (Q13547 whole entry R34A) above, with Y23A, A34R counted along it
HDAC1 Y24A, sequence (Q13547 whole entry Y24A): as the sequence (Q13547 whole entry R34A) above, with Y24A, A34R counted along it
HDAC1 F205Y, sequence (Q13547 whole entry F205Y): as the sequence (Q13547 whole entry R34A) above, with A34R, F205Y counted along it
wild-type HDAC1, sequence (Q13547 whole entry): as the sequence (Q13547 whole entry R34A) above, with A34R counted along it

One may read the IC50 as the concentration that inhibits the measured activity by half. Take `CC(=O)[O-].[Na+]` [acetate, sodium acetate]: the “fold reduction of acetate inhibition compared to wild type” value with HDAC8 R37A was 160 fold. Also, the “fold reduction in acetate inhibition compared to the wild type” value at HDAC1 R34A (HDAC1 R34A vs wild type) is “roughly 3 fold”; at HDAC1 Y24A (HDAC1 Y24A vs wild type), “roughly 3 fold”; at HDAC1 C151A (HDAC1 C151A vs wild type), “roughly 2 fold”; at HDAC1 R36A (HDAC1 R36A vs wild type) it was “roughly 2 fold”; at HDAC1 Y23A (HDAC1 Y23A vs wild type), “roughly 3 fold”. Besides, the half-maximal inhibitory concentration (IC50) against HDAC1 R34A (acetate inhibition, HDAC1 R34A) is 21 ± 1.6 mM; in experiment [1], 2.5 mM; at HDAC1 Y24A (acetate inhibition, HDAC1 Y24A) it was 19 ± 1.1 mM; against HDAC1 C151A (acetate inhibition, HDAC1 C151A) it was 13 ± 1.1 mM; at HDAC1 R36A (acetate inhibition, HDAC1 R36A), 16 ± 1.3 mM; at wild-type HDAC1, 7.2 ± 0.54 mM. Besides, the IC50 on HDAC1 F205Y was found to be 8 ± 1.5 mM; against HDAC1 Y23A (acetate inhibition, HDAC1 Y23A) it was 21 ± 1.5 mM.
